This is an account of results in US10954215B2, “Compounds as modulators of ROR gamma” (Boehringer Ingelheim International GmbH, priority 2016, dated 2021).

The assay has as its target T1, RORγ (Homo sapiens, UniProt P51449).
T1 construct: expressed in transfected cells; host or cells: HEK 293 cells, transiently transfected
T1 sequence (P51449 269-508 limits assumed): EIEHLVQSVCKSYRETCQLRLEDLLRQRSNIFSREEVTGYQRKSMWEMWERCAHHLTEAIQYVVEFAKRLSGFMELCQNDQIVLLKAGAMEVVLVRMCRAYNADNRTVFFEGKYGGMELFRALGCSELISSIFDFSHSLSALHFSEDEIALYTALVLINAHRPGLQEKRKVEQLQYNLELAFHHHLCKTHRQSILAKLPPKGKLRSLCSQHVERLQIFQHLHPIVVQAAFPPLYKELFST
Briefly: Reporter Gene Assay (RGA): inhibition of RORγ transactivation of a luciferase reporter in transiently transfected HEK 293 cells. The note with it: HEK 293 cells cotransfected with pGL4.3 luc2P/GAL4UAS and pBIND Gal4DBD hRORC LBD; 20-24 h incubation; luciferase luminescence. The class given is cell-based. How it is done:
Reporter Gene Assay (RGA)
A nuclear receptor transactivation assay is performed to quantitate the ability of test compounds to inhibit RORγ transactivation of a luciferase reporter. A similar assay is described in: Khan et al., Bioorganic & Medicinal Chemistry Letters 23 (2013), 532-536. The system uses transiently transfected HEK 293 cells cotransfected with two plasmids (pGL4.3, luc2P/GAL4UAS/Hygro, and pBIND, Gal4DBD hRORC LBD1-3). The positive control is co-transiently transfected with both plasmids, and the negative control contains the pGL4.3 promoter sequence. Assays are assembled in 384 well plates where transiently transfected cells and test compound at varying concentrations are incubated for 20-24 h. The next day, assays plates are taken out and equilibrated at RT for 20-30 minutes. Bright-Glo™ Luciferase Assay System is used to detect Luciferase production. After addition of Bright GLO detection reagent, the plates are incubated at RT for 20 minutes. The plates are read on an Envision plate reader to measure luminescence signal. The RLU signal is converted to POC relative to control and blank wells.
Compound dilution buffer:
Bright Glo Luciferase Assay System: Promega #E2620
Thaw lysis buffer provided in kit, add 100 mL lysis buffer to substrate powder.
On to `CCS(=O)(=O)c1ccc(CNC(=O)N2CC(c3ccccc3)C(c3ccccc3)C2)cc1` (centres unmarked) [Example 1], for which the IC50 – broadly, the point on the concentration scale where inhibition reaches its midpoint – was determined as 2.4 µM. Take `CCS(=O)(=O)c1ccc(CNC(=O)N2CC(c3ccccc3)C(c3ccccc3)C2)nc1` (centres unmarked) [Example 2]: the IC50 amounted to 5 µM. As for `CCS(=O)(=O)c1ccc(CNC(=O)N2CC(c3ccccc3)C(c3ccccc3)C2)cn1` (centres unmarked) [Example 3], the IC50 came out at 7.9 µM. This IC50 is about 1.6-fold higher than that of the molecule before. The value for `CCS(=O)(=O)c1ccc(CNC(=O)N2CC(c3ccccc3)C(c3cc(C)nn3C)C2)cc1` (centres unmarked) [Example 4] was 3.9 µM; that for `CCS(=O)(=O)c1ccc(CNC(=O)N2CC(c3ccccc3)C(c3ncccc3C3CC3)C2)cc1` (centres unmarked) [Example 5] was 2.8 µM. The value for `CCS(=O)(=O)c1ccc(CNC(=O)N2CC(c3ccccc3)C(c3cc(C4CC4)nn3C)C2)cc1` (centres unmarked) [Example 6] was 2.6 µM; that for `CCS(=O)(=O)c1ccc(CNC(=O)N2CC(c3ccccc3)C(c3csc4ccccc34)C2)cc1` (centres unmarked) [Example 7] was 1.02 µM. Regarding `CCn1nc(C2CC2)cc1C1CN(C(=O)NCc2ccc(S(=O)(=O)CC)cc2)CC1c1ccccc1` (centres unmarked) [Example 8], half-maximal inhibition (IC50) was put at 1.75 µM. With `CCS(=O)(=O)c1ccc(CNC(=O)N2CC(c3ccccc3)C(c3cn(C)nc3C(C)(C)C)C2)cc1` (centres unmarked) [Example 9] the figure was 1.55 µM; with `CCS(=O)(=O)c1ccc(CNC(=O)N2CC(C(C)C)C3(C2)Oc2c(C(C)C)ccc(C)c2C3=O)cc1` (centres unmarked) [Example 10], 0.275 µM; with `CCS(=O)(=O)c1ccc(CNC(=O)N2CC(C(C)C)C3(C2)Oc2c(C(C)C)ccc(C)c2C3=O)nc1` (centres unmarked) [Example 11], 0.62 µM. With `CCS(=O)(=O)c1ccc(CNC(=O)N2CC(c3ccccc3)C(c3ccnn3-c3ccccc3)C2)cc1` (centres unmarked) [Example 12] the figure was 2.1 µM; with `CCS(=O)(=O)c1ccc(CNC(=O)N2CC(c3cccc(Cl)c3)C(c3nc(C(C)C)no3)C2)cc1` (centres unmarked) [Example 13], 19 µM; with `CCS(=O)(=O)c1ccc(CNC(=O)N2CC(c3ccccc3)C(c3ncccc3C(F)(F)F)C2)cc1` (centres unmarked) [Example 14], 1 µM.

`CCS(=O)(=O)c1ccc(CNC(=O)N2CC(c3ccccc3)C(c3cc(C)nn3C3CCCC3)C2)cc1` (centres unmarked) [Example 15] returned an IC50 of 0.565 µM. Molecule `CCS(=O)(=O)c1ccc(CNC(=O)N2CC(c3ccccc3)C(c3cc(C4CC4)nn3C(C)C)C2)cc1` (centres unmarked) [Example 16A] came in with an IC50 of 0.625 µM. For `CCS(=O)(=O)c1ccc(CNC(=O)N2C[C@H](c3ccccc3)[C@@H](c3cc(C4CC4)nn3C(C)C)C2)cc1` [Example 16B], the IC50 was 0.925 µM. Regarding `CCS(=O)(=O)c1ccc(CNC(=O)N2C[C@@H](c3ccccc3)[C@H](c3cc(C4CC4)nn3C(C)C)C2)cc1` [Example 16C], the IC50 was determined as 1.25 µM. With `CNS(=O)(=O)c1ccc(CNC(=O)N2CC(c3ccccc3)C(c3cc(C4CC4)nn3C(C)C)C2)cc1` (centres unmarked) [Example 17], the IC50 was determined as 2.3 µM. The molecule `CCS(=O)(=O)c1ccc(CNC(=O)N2CC(c3ccccc3)C(c3cc(C4CC4)nn3C(C)C)C2)nc1` (centres unmarked) [Example 18] had an IC50 of 2.5 µM. The value for `CCS(=O)(=O)c1ccc(CNC(=O)N2CC(c3ccccc3)C(c3nn(C(C)C)nc3C3CC3)C2)cc1` (centres unmarked) [Example 19] was 4.1 µM; that for `CCS(=O)(=O)c1ccc(CNC(=O)N2CC(c3ccccc3)C(c3cc(C4CC4)nn3C(C)C)C2)cn1` (centres unmarked) [Example 20] was 5.5 µM.

`CCS(=O)(=O)c1ccc(CNC(=O)N2CC(c3ccccc3)C(c3nc(C(C)C)nn3C3CC3)C2)cc1` (centres unmarked) [Example 21]: 7.4 µM corresponded to half-maximal inhibition (IC50). With `CCS(=O)(=O)c1ccc(CNC(=O)N2CC(c3ccccc3)C(c3nc(C4CC4)nn3C(C)C)C2)cc1` (centres unmarked) [Example 22], half-maximal inhibition (IC50) was put at 8.7 µM. `CCS(=O)(=O)c1ccc(CNC(=O)N2CC(c3ccccc3)C(c3nn(C(C)C)nc3C3CC3)C2)nc1` (centres unmarked) [Example 23] showed an IC50 of 6.2 µM. The value for `CCS(=O)(=O)c1cnc(CNC(=O)N2CC(c3ccccc3)C(c3cc(C4CC4)nn3C(C)C)C2)nc1` (centres unmarked) [Example 24] was 13 µM; that for `CCS(=O)(=O)c1ccc(CNC(=O)N2CC(c3cccc(Cl)c3)C(c3nc(C4CC4)cs3)C2)cc1` (centres unmarked) [Example 25] was 4.9 µM. In turn, `CCS(=O)(=O)c1ccc(CNC(=O)N2CC(c3ccccc3)C(c3ccccc3OC(F)(F)F)C2)cc1` (centres unmarked) [Example 26] had an IC50 of 0.85 µM. Compared with the last molecule, the IC50 is about 5.8-fold lower. In turn, `CCS(=O)(=O)c1ccc(CNC(=O)N2CC(c3ccccc3)C(c3cccc(OC(F)(F)F)c3)C2)cc1` (centres unmarked) [Example 27] gave an IC50 of 2.4 µM. The value for `CCS(=O)(=O)c1ccc(CNC(=O)N2CC(c3ccccc3)C(c3cc(C4CC4)nn3CC3CC3)C2)cc1` (centres unmarked) [Example 28] was 1.06 µM; that for `CCS(=O)(=O)c1ccc(CNC(=O)N2CC(c3ccccc3)C(c3ccccc3OC(F)(F)F)C2)nc1` (centres unmarked) [Example 29] was 0.83 µM. The value for `CCS(=O)(=O)c1ccc(CNC(=O)N2CC(c3ccccc3)C(c3cccc(OC(F)(F)F)c3)C2)nc1` (centres unmarked) [Example 30] was 5.2 µM; that for `CCS(=O)(=O)c1ccc(CNC(=O)N2CC(c3ccccc3)C(c3cc(C4CC4)nn3CC3CC3)C2)nc1` (centres unmarked) [Example 31] was 2.2 µM. Molecule `CCS(=O)(=O)c1ccc(CNC(=O)N2CC(c3cccc(Cl)c3)C(c3cccc4cnccc34)C2)cc1` (centres unmarked) [Example 32] showed an IC50 of 1.2 µM. With `CCS(=O)(=O)c1ccc(CNC(=O)N2CC(c3ccccc3)C(c3cn(C4CC4)nc3C(C)(C)C)C2)cc1` (centres unmarked) [Example 33] the figure was 0.51 µM. Molecule `CNS(=O)(=O)c1ccc(CNC(=O)N2CC(c3ccccc3)C(c3cn(C4CC4)nc3C(C)(C)C)C2)cc1` (centres unmarked) [Example 34] came in with an IC50 of 1.3 µM. Molecule `CCS(=O)(=O)c1ccc(CNC(=O)N2CC(c3ccccc3)C(c3cn(C4CC4)nc3C(C)(C)C)C2)nc1` (centres unmarked) [Example 35] registered an IC50 of 1.9 µM. This IC50 and that of the molecule before are within 1.5-fold of each other.

In the case of `CCS(=O)(=O)c1ccc(CNC(=O)N2CC(c3ccccc3)C(c3nc(C4CC4)nn3C(C)(C)C)C2)cc1` (centres unmarked) [Example 36], the IC50 was found to be 2.6 µM. With `CCS(=O)(=O)c1ccc(CNC(=O)N2CC(c3ccccc3)C(c3cn(C(C)C)nc3C(C)(C)C)C2)cc1` (centres unmarked) [Example 37] the figure was 0.44 µM. With `CCS(=O)(=O)c1ccc(CNC(=O)N2CC(c3ccccc3)C(c3cc(C(C)(C)C)nn3C(C)C)C2)cc1` (centres unmarked) [Example 38] the figure was 0.78 µM; with `CNS(=O)(=O)c1ccc(CNC(=O)N2CC(c3ccccc3)C(c3cn(C(C)C)nc3C(C)(C)C)C2)cc1` (centres unmarked) [Example 39], 0.965 µM; with `CCS(=O)(=O)c1ccc(CNC(=O)N2CC(c3ccccc3)C(c3cn(C(C)C)nc3C(C)(C)C)C2)nc1` (centres unmarked) [Example 40], 1.3 µM. The value for `CCS(=O)(=O)c1ccc(CNC(=O)N2CC(c3ccccc3)C(c3cc(C(C)(C)C)nn3C(C)C)C2)nc1` (centres unmarked) [Example 41] was 1.45 µM; that for `CCS(=O)(=O)c1ccc(CNC(=O)N2CC(c3ccccc3)C(c3nc(C(C)C)nn3C(C)(C)C)C2)cc1` (centres unmarked) [Example 42] was 1.95 µM; that for `CCS(=O)(=O)c1ccc(CNC(=O)N2CC(c3ccccc3)C3(C2)Oc2c(C(C)C)ccc(C)c2C3=O)cc1` (centres unmarked) [Example 43] was 0.149 µM. Molecule `CCS(=O)(=O)c1ccc(CNC(=O)N2CC(c3ccccc3)C(c3cc(C(F)(F)F)cnc3OC)C2)cc1` (centres unmarked) [Example 44] returned an IC50 of 1.15 µM.

As for `CCS(=O)(=O)c1ccc(CNC(=O)N2CC(c3ccccc3)C3(C2)Oc2c(C(C)C)ccc(C)c2C3=O)nc1` (centres unmarked) [Example 45], the midpoint of inhibition, the IC50, lay at 0.26 µM.

`CCS(=O)(=O)c1ccc(CNC(=O)N2CC(c3cc(C)cc(C)n3)C(c3cc(C4CC4)nn3C(C)C)C2)nc1` (centres unmarked) [Example 46]: the IC50 was 3.2 µM. With `CCS(=O)(=O)c1ccc(CNC(=O)N2CC(c3cccc(Cl)c3)C(c3ccccc3C(F)(F)F)C2)nc1` (centres unmarked) [Example 47] the figure was 1.4 µM; with `CCS(=O)(=O)c1ccc(CNC(=O)N2CC(c3cccc(Cl)c3)C(c3cc(C4CC4)nn3C(C)C)C2)cc1` (centres unmarked) [Example 48], 0.775 µM; with `CCS(=O)(=O)c1ccc(CNC(=O)N2CC(c3cccc(Cl)c3)C(c3nc(C4CC4)nn3C(C)C)C2)nc1` (centres unmarked) [Example 49], 1.75 µM. Molecule `CCS(=O)(=O)c1ccc(CNC(=O)N2CC(c3cccc(C4CC4)c3)C(c3cc(C4CC4)nn3C(C)C)C2)nc1` (centres unmarked) [Example 52] had an IC50 of 1.48 µM. The IC50 values of the last two molecules are within 1.5-fold of each other. On to `CCS(=O)(=O)c1ccc(CNC(=O)N2CC(c3cccc(C4CC4)n3)C(c3cc(C4CC4)nn3C(C)C)C2)nc1` (centres unmarked) [Example 53], for which it took 1.55 µM to reach half-maximal inhibition (IC50). The value for `CCS(=O)(=O)c1cnc(CNC(=O)N2CC(c3cccc(C4CC4)n3)C(c3cc(C4CC4)nn3C(C)C)C2)nc1` (centres unmarked) [Example 54] was 5.2 µM.

In turn, `CCS(=O)(=O)c1ccc(CNC(=O)N2CC(c3ccccc3)C(c3cc(C(F)(F)F)cn(C(C)C)c3=O)C2)cc1` (centres unmarked) [Example 55] displayed an IC50 of 1.5 µM.

In turn, `CCS(=O)(=O)c1ccc(CNC(=O)N2CC(c3cccc(C4CC4)n3)C(c3cn(C4CC4)nc3C(C)(C)C)C2)cc1` (centres unmarked) [Example 56] displayed an IC50 of 0.865 µM. This IC50 is about 1.7-fold lower than that of the molecule before.
